Measurements as given in US9011863B2, “Combinations of kinase inhibitors for the treatment of cancer” (Exelixis, Inc., priority 2010, dated 2015).

Tests used:
HER3 mRNA [1] = test: real-time qPCR of HER3 mRNA; format: cell-based, human; conditions: for HER3 mRNA/protein or pHER3: data not shown
Experimental: FIG. 12B depicts a bar chart of timed HER3 mRNA transcription in BT474 cells which were treated with 2 μM 5J8, 20 μM LY294002, and 50 nM rapamycin for 10 hours prior to RNA isolation and qPCR analysis with HER3-specific primers.

HER3 mRNA [2] = conditions: ovarian cancer cells; cited from earlier work
[3] = tested on: HER3, pHER3^Y1289, pAKT^S473; test: immunohistochemistry of BT474 xenografts; format: in vivo, mice; conditions: day 28
Experimental: FIG. 18B depicts photomicrographs of immunohistochemistry sections from formalin-fixed, paraffin-embedded tumor blocks. Xenografts were harvested on day 28, 1 hour after the last dose of lapatinib and/or compound A. Antibodies used were against HER3, pHER3^Y1289, and pAKT^S473. Photographs were taken at 400× magnification (scale bar: 50 μm).
All tumor samples (collected within 1 hour of last treatment) were fixed in 10% neutral buffered formalin for 24 hours at room temperature, followed by dehydration and paraffin embedding. Immunostaining was done on 5-μm tissue sections. After deparaffinization in xylene and graded alcohols heat-induced antigen retrieval was performed in a pH 6.0 citrate buffer followed by incubation with 3% hydrogen peroxide for 20 minutes, with protein block (Dako) for 10 minutes, and finally with primary antibody overnight at 4° C. The Envision Visualization System (Dako, Carpinteria, Calif., USA) was used, followed by DAB as chromagen and counterstained with hematoxylin. Tumor sections were studied on a light microscope with an ocular magnification of 400 times. Average percentage and intensity of tumor cell staining was calculated as a histoscore (H-score) (as described in Goulding, H., et al. (1995), Hum. Pathol. 26:291-294, which is incorporated herein by reference in its entirety). An expert pathologist (MGK) scoring the sections was blinded to the type of treatment.
Using immunohistochemistry (IHC), experiments were performed to examine pharmacodynamic biomarkers of target inactivation in xenografts after 28 days of treatment. […] Therefore, experiments were performed to quantify differences in pAKT^S473 expression in both cytoplasmic and nuclear compartments in xenograft sections.

BT474 xenografts = test: BT474 xenograft experiments; format: in vivo, mice; conditions: trastuzumab 30 mg/kg twice-a-week i.p.; lapatinib 100 mg/kg daily; compound A 100 mg/kg daily gavage; 28 days
Experimental: Tumor volumes were recorded twice-a-week. Each data point represents the mean tumor volume in mm^3±SE of 8 mice per type of treatment. CR=complete response to treatment.
Animal experiments were approved by the Institutional Animal Care Committee of Vanderbilt University Medical Center (VUMC). Mice were housed in the accredited Animal Care Facility of the VUMC. A 17β-estradiol pellet (Innovative Research of America) was injected subcutaneously (s.c.) into each 6- to 7-week-old athymic female mice (Harlan Sprague Dawley, Inc.) the day before tumor cell injection. BT474 cells (3×10^6) mixed 1:1 with Matrigel (BD Biosciences) were injected s.c. into the right flank of each mouse. Tumor diameters were measured with calipers twice-a-week and volume in mm^3 calculated with the formula: volume=width^2×length/2. […] Mice were euthanized after 28 days of treatment.
There was no significant drug-related toxicity in any of the treatment arms.

O=C(NOCC1CC1)c1ccc(F)c(F)c1Nc1ccc(I)cc1Cl [CI-1040]
HER3 mRNA/protein or pHER3 (HER3 mRNA [1]): did not upregulate HER3 mRNA/protein or pHER3

CS(=O)(=O)N1CCN(Cc2cc3nc(-c4cccc5[nH]ncc45)nc(N4CCOCC4)c3s2)CC1 [GDC-0941]
HER3 mRNA downregulation by heregulin (HER3 mRNA [2]): blocked downregulation of the HER3 mRNA

CO[C@H]1C[C@@H]2CC[C@@H](C)[C@@](O)(O2)C(=O)C(=O)N2CCCC[C@H]2C(=O)O[C@H]([C@H](C)C[C@@H]2CC[C@@H](OCCO)[C@H](OC)C2)CC(=O)[C@H](C)/C=C(\C)[C@@H](O)[C@@H](OC)C(=O)[C@H](C)C[C@H](C)/C=C/C=C/C=C/1C [RAD001, everolimus]
HER3 mRNA/protein or pHER3 (HER3 mRNA [1]): did not upregulate HER3 mRNA/protein or pHER3

CS(=O)(=O)CCNCc1ccc(-c2ccc3ncnc(Nc4ccc(OCc5cccc(F)c5)c(Cl)c4)c3c2)o1 [lapatinib, reference compound]
pHER3 by IHC [3]: more effective than trastuzumab in reducing pHER3 | tumor growth, monotherapy (BT474 xenografts): significantly delayed tumor growth | HER3 mRNA levels (HER3 mRNA [1]; BT474, compound A 6 μM, lapatinib 1 μM, trastuzumab 10 μg/ml, 10 hours): markedly induced HER3 mRNA
